pIC50: −log10 of the molar value. “Also recorded” adds a separate entry of the source.

For experiment [1], the system named is lymphoma-induced chronic itch. Description: Mouse CTCL xenograft model of chronic itch. In kind it is in vivo. As for the experimental part:
We used a murine xenograft model of cutaneous T cell lymphoma (CTCL) using immune-deficient mice (NOD.CB17-Prkdcscid, 8-10 weeks old, male). CD4+ MyLa cell line was purchased from Sigma (Catalog #95051032). The cell line was established from a plaque biopsy of a person with mycosis fungoides stage II by inclusion of IL-2 and IL-4 in the culture medium. CTCL was generated via intradermal injection of CD4+ Myla cells (1×10^5 cells/μL, 100 μL) on the nape of the neck. Itch behavior was tested on Day 50 after inoculation of CTCL cells.

A further experiment concerns the target human Nav1.7 (Homo sapiens, UniProt Q15858). Description: Whole-cell patch-clamp of sodium currents in Nav1.7-expressing HEK293 cells. In kind it is cell-based. As for the experimental part:
HEK-hNav1.7 stable cell line was purchased from SB Drug Discovery (Glasgow, United Kingdom). Human embryonic kidney 293 (HEK293) cells were obtained from the ATCC and maintained at the Duke cell culture facility. Cells were cultured in high-glucose (4.5 g/L) DMEM containing 10% (v/v) FBS (Gibco) and streptomycin/penicillin. For Nav1.7-expressing HEK293 cells, an additional antibiotic, blasticidin, was included. hNav1.5 transfection was performed by Lipofectamine 2000 at 70% confluence using 2 μg cDNA. The transfected cells were cultured in the same growth medium for 48 h before biochemical or electrophysiological studies.
Whole-cell patch-clamp recordings were conducted at room temperature. Patch pipettes pulled from borosilicate capillaries (World Precision Instruments, Inc., Sarasota, FL) were used to record transient Na currents with an Axopatch-200B amplifier with a Digidata 1440A (Axon Instruments, Sunnyvale CA). The resistance was set to 3-4 MΩ when filled with pipette solution. The pipette solution contained (in mmol/L): CsCl 130, NaCl 9, MgCl2 1, EGTA 10, HEPES 10, adjusted to pH 7.3 with CsOH. The external solution for recording transient Na^+ currents contained (in mmol/L): NaCl 131, TEACl 10, CsCl 10, CaCl2) 1, MgCl2 2, CdCl2 0.3, 4-aminopyridine 3, HEPES 10, glucose 10, adjusted to pH 7.4 with NaOH. The recording chamber (300 μL) was continuously superfused at 3-4 mL/min. Series resistance was compensated (>80%) and leak subtraction was performed. Data were low-pass-filtered at 2 kHz and sampled at 10 kHz. pClamp10 (Axon Instruments) software was used during experiments and analysis. In voltage-clamp experiments, transient Na+ currents were evoked by a test pulse to 0 mV from the holding potential (−70 mV).
The effects of the 9 selected compounds on Nav1.7 channel activities were tested using patch-clamp recordings on human Nav1.7 expressing HEK293 cells (FIG. 3, FIG. 4). In each cell, sodium currents were recorded for 13 min, and candidate inhibitors (10 μM) were incubated for 2 min after 2 min baseline recording (FIG. 3). Compound was applied at the beginning of the second minute for two minutes (denoted as a horizontal line above the X-axis). Sodium currents were recorded at equal intervals (every 20 seconds, 40 recordings per compound per cell). Data was analyzed with a two-way repeated measures ANOVA, followed by a post-hoc test of the last timepoint Bonferroni-corrected for 9 pairwise comparisons (each compound was compared with control). […] Sample size n=3 to 7 cells per group.
For FIG. 4C, sample size was n=5 to 7 cells per group. Compound was applied at the beginning of the second minute for two minutes (denoted as a horizontal line above the X-axis). Sodium currents were recorded every 20 seconds.
A general note: The patch-clamp technique gives a direct electrical read-out from membranes.

Experiment [2] concerns paclitaxel-induced mechanical allodynia. Description: Paclitaxel-induced neuropathic pain model (von Frey). As to conditions: for effect on paclitaxel-induced mechanical allodynia: mice. In kind it is in vivo, mouse. As for the experimental part: Intraperitoneal injection of paclitaxel (PTX, 2 mg/kg for multiple injections at day 0, 2, 4, and 6) was given to generate chemotherapy-associated neuropathic pain. Neuropathic pain behavior was tested 3 weeks after PTX injection using a von Frey test. Briefly, animals were habituated to the testing environment daily for at least 2 days before the baseline testing. Animals were confined in boxes placed on an elevated metal mesh floor and the hind paws were stimulated with a series of von Frey hairs with logarithmically increasing stiffness (0.02-2.56 g, Stoelting), presented perpendicularly to the central plantar surface. The 50% paw withdrawal threshold was determined by an up-down method.

Chain of human Nav1.7 (Q15858 whole entry): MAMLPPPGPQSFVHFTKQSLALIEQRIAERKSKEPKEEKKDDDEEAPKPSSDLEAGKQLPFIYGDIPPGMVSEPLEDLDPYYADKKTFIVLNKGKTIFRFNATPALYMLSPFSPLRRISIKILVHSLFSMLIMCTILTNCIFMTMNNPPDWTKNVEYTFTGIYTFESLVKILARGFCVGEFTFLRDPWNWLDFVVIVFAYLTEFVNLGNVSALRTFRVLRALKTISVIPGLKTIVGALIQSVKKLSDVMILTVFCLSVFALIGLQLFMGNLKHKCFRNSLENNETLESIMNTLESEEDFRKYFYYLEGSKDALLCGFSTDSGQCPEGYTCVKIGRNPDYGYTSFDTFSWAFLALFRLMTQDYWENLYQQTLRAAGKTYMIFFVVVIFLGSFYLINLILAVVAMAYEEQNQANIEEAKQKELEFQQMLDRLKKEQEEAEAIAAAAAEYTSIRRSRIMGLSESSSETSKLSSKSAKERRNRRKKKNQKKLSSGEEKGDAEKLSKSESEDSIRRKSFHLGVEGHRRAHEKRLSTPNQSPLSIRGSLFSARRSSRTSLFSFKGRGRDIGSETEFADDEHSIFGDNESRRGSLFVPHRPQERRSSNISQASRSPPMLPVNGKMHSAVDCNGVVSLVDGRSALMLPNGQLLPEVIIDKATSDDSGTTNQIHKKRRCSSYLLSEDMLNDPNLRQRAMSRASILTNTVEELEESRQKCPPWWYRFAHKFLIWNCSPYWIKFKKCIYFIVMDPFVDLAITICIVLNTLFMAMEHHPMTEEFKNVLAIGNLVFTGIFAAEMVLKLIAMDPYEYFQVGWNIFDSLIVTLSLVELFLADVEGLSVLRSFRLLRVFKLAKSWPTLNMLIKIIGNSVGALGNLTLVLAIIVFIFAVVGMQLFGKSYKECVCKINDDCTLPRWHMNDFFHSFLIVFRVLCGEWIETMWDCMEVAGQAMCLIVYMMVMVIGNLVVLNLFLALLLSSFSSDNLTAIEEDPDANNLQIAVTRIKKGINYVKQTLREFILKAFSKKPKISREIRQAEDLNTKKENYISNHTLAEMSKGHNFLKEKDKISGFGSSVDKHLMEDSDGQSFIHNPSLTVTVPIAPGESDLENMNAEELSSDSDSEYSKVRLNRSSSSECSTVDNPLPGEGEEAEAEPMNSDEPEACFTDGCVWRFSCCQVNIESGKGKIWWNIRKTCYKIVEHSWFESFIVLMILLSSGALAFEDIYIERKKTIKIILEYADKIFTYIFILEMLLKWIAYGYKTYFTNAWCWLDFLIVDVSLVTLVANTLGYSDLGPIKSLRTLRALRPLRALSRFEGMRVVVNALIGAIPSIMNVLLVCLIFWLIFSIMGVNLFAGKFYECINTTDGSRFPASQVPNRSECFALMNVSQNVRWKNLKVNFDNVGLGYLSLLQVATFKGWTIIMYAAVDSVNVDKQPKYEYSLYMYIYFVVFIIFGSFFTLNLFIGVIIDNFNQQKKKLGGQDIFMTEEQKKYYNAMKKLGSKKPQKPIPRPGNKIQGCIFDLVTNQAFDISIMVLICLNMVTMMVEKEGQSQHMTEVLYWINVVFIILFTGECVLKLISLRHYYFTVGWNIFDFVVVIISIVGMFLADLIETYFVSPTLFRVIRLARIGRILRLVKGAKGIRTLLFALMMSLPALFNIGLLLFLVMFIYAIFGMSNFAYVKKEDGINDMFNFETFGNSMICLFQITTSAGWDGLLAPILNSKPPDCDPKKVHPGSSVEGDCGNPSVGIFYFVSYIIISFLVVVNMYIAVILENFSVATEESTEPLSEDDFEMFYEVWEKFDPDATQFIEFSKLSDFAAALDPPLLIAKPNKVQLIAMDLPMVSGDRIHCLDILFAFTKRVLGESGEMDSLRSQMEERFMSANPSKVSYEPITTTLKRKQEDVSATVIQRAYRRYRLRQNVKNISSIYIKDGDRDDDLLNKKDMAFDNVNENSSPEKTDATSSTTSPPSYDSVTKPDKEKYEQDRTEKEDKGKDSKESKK

As to `O=C(CC(c1cccc(Oc2ccccc2)c1)c1cn(Cc2ccccc2)c2ccccc12)NCCN1CCCC1` (stereo not shown) [Compound 9, 3-(1-benzyl-1H-indol-3-yl)-3-(3-phenoxyphenyl)-N-(2-(pyrrolidin-1-yl)ethyl)propanamide], the “effect duration, chronic itch” value in experiment [1] (intrathecal) was more than 5 h. In experiment [1] (intrathecal 30 nmol, Day 50 after CTCL inoculation, listed as DA-0218), the “effect on lymphoma-induced chronic itch (scratch)” value is given as “inhibited; also recorded: significant reduction of scratch; also recorded: effective against lymphoma-induced itch”. Further, the “difference in relative current from the control group at the last measurement” value on human Nav1.7 (0.01 μM, dose-response (FIG. 4), not significant) turned out to be 0.13; on human Nav1.7 (0.1 μM, dose-response (FIG. 4)), 0.27; at human Nav1.7 (1 μM, dose-response (FIG. 4)) it was 0.47; on human Nav1.7 (10 μM, dose-response (FIG. 4)) it was 0.76; on human Nav1.7 (10 μM, screen of compounds 1-9 (FIG. 3)), 0.71. The “inhibition of sodium currents vs. control” value at human Nav1.7 (1 μM) stood at 47%. Moreover, the pIC50 on human Nav1.7 (Nav1.7-expressing HEK293 cells, dose-response, read-out: 50% inhibition concentration (IC50)) is 6.13. Besides, the “effect on paclitaxel-induced mechanical allodynia” value is reported as “no effect on allodynia; also recorded: did not produce any anti-allodynia effects” in experiment [2] (intraperitoneal 30 mg/kg, listed as DA-0218) and “acute reduction; also recorded: transiently but completely reversed; also recorded: statistically significant anti-allodynia effects” in experiment [2] (intrathecal, single injection, listed as DA-0218). Moreover, in experiment [2] (intrathecal, paclitaxel model), the “effect duration, chronic pain” value was found to be 3 h. Moreover, the “analgesic effect after repeated intrathecal injections (2nd and 3rd injection)” value in experiment [2] (tested one hour after each injection, paclitaxel model, listed as DA-0218) is recorded as “did not produce any analgesic effect; also recorded: induced acute tolerance”.

The values above are taken from patent publication US12533341B2, “Small molecule inhibitors of voltage-gated sodium channel 1.7 and methods of using same” (Duke University, priority 2019, dated 2026).
